Measurements: patent US20180050040A1, “USE OF 4-(4-FLUORO-2-METHOXYPHENYL)-N--1,3,5-TRIAZIN-2-AMINE FOR TREATING LYMPHOMAS” (Bayer Pharma Aktiengesellschaft, priority 2015, published 2018)
Values joined by “and” are separate entries in the source; they are usually repeats but may differ in a detail not shown here. Equal entries are not always repeated.

What was measured:
[1] = tested on: ATL tumor cells (S-YU); experiment: ATL cell-bearing NOG mice treated for 21 days, survival times; format: in vivo
Protocol: (§1) NOD/Shi-scid, IL-2Rγ^null (NOG) mice were purchased from the Central Institute for Experimental Animals (Kanagawa, Japan) and used at between 6-8 weeks of age.
ATL cells from intraperitoneal masses suspended in RPMI-1640 were also inoculated i.p. into another 14 naive NOG mice at 1.0×10^7 cells per mouse. These animals were randomly divided into two groups of seven each for treatment with Compound A′ or vehicle. Compound A′ was formulated in the same manner, and mice were treated by oral application of 12.5 mg/kg Compound A′ or vehicle, once daily for 21 days (7-27 days after ATL cell inoculations). The therapeutic efficacy of Compound A′ was evaluated according to survival times.
(§2) Differences between groups regarding the percentage of ATL cells in mouse liver and bone marrow cell suspensions, and human sIL2R concentrations in mouse sera, were examined using a Mann-Whitney U test. Mouse survival analyses were done by Kaplan-Meier method, and survival curves were compared using the log-rank test. All analyses were performed using SPSS Statistics 17.0 software (SPSS Inc., Chicago, Ill.). In this study, P<0.05 was considered significant.

[2] = tested on: S-YU; experiment: Cell proliferation assay (CellTiter Glo), S-YU with IL-2; format: cell-based; details: ATL, after 24 hours of incubation, IL-2 100 IU/mL
Protocol: (§3) The proliferation of all lymphoma cell lines, other than S-YU, in the presence of different concentrations of Compound A′ for 72 h was assessed using CellTiter Glo kits (Promega Corporation, Madison, Wis.). Proliferation of S-YU in the presence of recombinant human interleukin-2 (IL-2) at a final concentration of 100 IU/mL, with different concentrations of Compound A′ for 24 h, was assessed in the same manner. All expressed values were averages of triplicate experiments, and IC50 was calculated using GraphPad Prism 5 (GraphPad Software, San Diego, Calif.) according to the manufacturer's instructions or the MTS software.

[3] = tested on: Jeko-1; experiment: Cell proliferation assay (CellTiter Glo); format: cell-based; details: Homo sapiens; Jeko-1, Mantle cell lymphoma; 72 h
Protocol: as §3

[4] = tested on: HBL1; experiment: Cell proliferation assay (CellTiter Glo); format: cell-based; details: HBL1, DLBCL, ABC subtype; 72 h
Protocol: as §3

[5] = tested on: MT-2; experiment: Cell proliferation assay (CellTiter Glo); format: cell-based; details: Homo sapiens, MT2; MT-2, HTLV-1-immortalized cell line; 72 h
Protocol: as §3

[6] = tested on: ATN-1; experiment: Cell proliferation assay (CellTiter Glo); format: cell-based; details: Homo sapiens; ATN-1, ATL; 72 h
Protocol: as §3

[7] = tested on: OCI-LY-3; experiment: Cell proliferation assay (CellTiter Glo); format: cell-based; details: Homo sapiens, OCI-Ly3; OCI-LY-3, DLBCL, ABC subtype; 72 h
Protocol: as §3

[8] = tested on: MT-1; experiment: Cell proliferation assay (CellTiter Glo); format: cell-based; details: MT-1, ATL; 72 h
Protocol: as §3

[9] = tested on: KM-H2; experiment: Cell proliferation assay (CellTiter Glo); format: cell-based; details: Homo sapiens; KM-H2, Hodgkin lymphoma; 72 h
Protocol: as §3

[10] = tested on: SU-DHL-4; experiment: Cell proliferation assay (CellTiter Glo); format: cell-based; details: Homo sapiens; SU-DHL-4, DLBCL, GCB subtype; 72 h
Protocol: as §3

[11] = tested on: SU-DHL-6; experiment: Cell proliferation assay (CellTiter Glo); format: cell-based; details: Homo sapiens; SU-DHL-6, DLBCL, GCB subtype; 72 h
Protocol: as §3

[12] = tested on: SU-DHL-10; experiment: Cell proliferation assay (CellTiter Glo); format: cell-based; details: Homo sapiens, SU-DHL10; SU-DHL-10, DLBCL, GCB subtype; 72 h
Protocol: as §3

[13] = tested on: HT; experiment: Cell proliferation assay (CellTiter Glo); format: cell-based; details: Homo sapiens, DLBCL, GCB subtype, 72 h
Protocol: as §3

[14] = tested on: OCI-LY-19; experiment: Cell proliferation assay (CellTiter Glo); format: cell-based; details: Homo sapiens, OCI-LY19; OCI-LY-19, DLBCL, GCB subtype; 72 h
Protocol: as §3

[15] = tested on: MT-4; experiment: Cell proliferation assay (CellTiter Glo); format: cell-based; details: Homo sapiens, MT4; MT-4, HTLV-1-immortalized cell line; 72 h
Protocol: as §3

[16] = tested on: TL-SU; experiment: Cell proliferation assay (CellTiter Glo); format: cell-based; details: HTLV-1-immortalized cell line, 72 h
Protocol: as §3

[17] = tested on: SU-DHL-8; experiment: Cell proliferation assay (CellTiter Glo); format: cell-based; details: Homo sapiens; SU-DHL-8, DLBCL, GCB subtype; 72 h
Protocol: as §3

[18] = tested on: DB; experiment: Cell proliferation assay (CellTiter Glo); format: cell-based; details: Homo sapiens, DLBCL, GCB subtype, 72 h
Protocol: as §3

[19] = tested on: Karpas422; experiment: Cell proliferation assay (CellTiter Glo); format: cell-based; details: Homo sapiens, KARPAS-422; Karpas422, Follicular lymphoma; 72 h
Protocol: as §3

[20] = tested on: MJ; experiment: Cell proliferation assay (CellTiter Glo); format: cell-based; details: ATL, 72 h
Protocol: as §3

[21] = tested on: TL-Om1; experiment: Cell proliferation assay (CellTiter Glo); format: cell-based; details: TL-Om1, ATL; 72 h
Protocol: as §3

[22] = tested on: Ramos; experiment: Cell proliferation assay (CellTiter Glo); format: cell-based; details: Homo sapiens, Burkitt's lymphoma, 72 h
Protocol: as §3

[23] = tested on: ATL tumor cells (S-YU); experiment: ATL cell-bearing NOG mice treated for 18 days, efficacy evaluated 25 days after inoculation; format: in vivo; details: 12.5 mg/kg p.o. once daily 18 days
Protocol: as §1
A leukemic cell clone from a patient with ATL, which could be serially transplanted into SCID mice and was designated S-YU as reported previously (Eur J Haematol. 2014; 92(3):219-228), was injected intraperitoneally (i.p.) into NOG mice. Three to four weeks after i.p. injection, NOG mice developed intraperitoneal masses within the mesentery. Cells from these intraperitoneal masses were suspended in RPMI-1640 and inoculated i.p. into healthy NOG mice, which then presented with disease features identical to those of the original mice. ATL tumor cells (S-YU) from the intraperitoneal masses were suspended in RPMI-1640, and 1.0×10^7 cells were inoculated i.p. into each of 16 naive NOG mice. The animals were randomly divided into two groups of eight each for treatment with Compound A′ or vehicle, seven days after ATL cell inoculations. Compound A′ was formulated in 40% PEG400 in water at a final concentration of 2.5 mg/mL. Mice were treated by oral application of 12.5 mg/kg Compound A′ (0.25 mg/100 μL per mouse) or vehicle (100 μL), once daily for 18 days (7-24 days after ATL cell inoculations). Therapeutic efficacy was then evaluated 25 days after ATL cell inoculations.
The concentration of human soluble IL-2 receptor (sIL2R) in mouse serum was measured by enzyme-linked immunosorbent assay (ELISA) using a human sIL2R immunoassay kit (R&D Systems, Minneapolis, Minn.) according to the manufacturer's instructions. All expressed values were averages of triplicate experiments.
as §2

[24] = tested on: DLBCL OCI-LY-7 xenografts; experiment: In vivo efficacy and tolerability in DLBCL OCI-LY-7 tumour model subcutaneously implanted in NOG mice; details: 25 mg/kg/day p.o.
Protocol: The aim of the present experiments was to assess the in vivo efficacy and tolerability of Compound A′ in monotherapy in the DLBCL OCI-LY-7 tumour model subcutaneously implanted in NOG mice.
In vivo efficacy was determined in female NOG mice bearing subcutaneous DLBCL OCI-LY-7 xenografts. Compound A′ was assessed at one dose level in monotherapy. Anti-tumour activity and tolerability of the treated group was assessed using the vehicle control group as a reference.
Mouse strain, sex: NOG, female Animals supplied by: Taconic, Denmark Approximate age at implantation: 5-7 weeks
DLBCL tumour fragments, derived from the OCI-LY-7 cell line, were obtained from xenografts in serial passage in nude mice and placed in PBS containing 10% penicillin/streptomycin. Tumour fragments (one fragment per animal; 3-4 mm edge length) were then subcutaneously implanted in the flank of NOG recipient mice under isofluorane anaesthesia.
At randomisation, the volume of growing tumours was initially determined. […] The result of the randomisation was documented and maintained with the experimental data. Animals not randomised were euthanised. The day of randomisation is designated as day 0 of an experiment.
Vehicle: 80% (m/V) PEC400 in water for injection Compound A′: preparation of a dosing solution (2.5 mg/ml) once weekly by diluting the Compound A′ powder at 0.25% (w/v) in vehicle; storage of the dosing solution at 4° C.; dosing volume 10 ml/kg
Mortality checks were conducted daily during routine monitoring.
Mice were weighed twice a week. Relative body weights of individual mice in % were calculated by dividing the individual body weight on day X (BWX) by the individual body weight on day 0 (BW0) multiplied by 100 according to the formula: […]
Group median relative body weights were calculated as well, considering only the weights of mice that were alive on the day in question.
The tumour volumes were determined by two-dimensional measurement with a caliper on the day of randomisation (day 0) and then twice weekly (i.e. on the same days on which mice were weighed). Tumour volumes were calculated according to the formulas:
Tumour volume=(a×b^2)×0.5
Relative volumes of individual tumours (RTVs) for Day x were calculated by dividing the absolute individual tumour volume on Day x (Tx) by the absolute individual tumour volume of the same tumour on Day 0 (T0) multiplied by 100%:
Anti-tumour activity was evaluated as maximum tumour volume inhibition versus the vehicle control group.
Tumour inhibition for a particular day (T/C in %) was calculated from the ratio of the median RTV values of test versus control groups multiplied by 100.
The minimum (or optimum) T/C % value recorded for a particular test group during an experiment represents the maximum anti-tumour activity for the respective treatment. T/C values were calculated if at least 50% of the randomised animals in a group were alive on the day in question.
Group optimum T/C values (in %) were used for activity rating as follows: […]

[25] = individual treated NOG mice 1-8, 25 days after inoculation, 12.5 mg/kg
[26] = OCI-LY-7 xenograft-bearing NOG mice, days 0-27

COc1cc(F)ccc1-c1ncnc(Nc2cccc(CS(C)(=N)=O)c2)n1 (single isomer, unassigned; (+)) [Compound A′, (+)-4-(4-Fluoro-2-methoxyphenyl)-N-{3-[(S-methylsulfonimidoyl)methyl]phenyl}-1,3,5-triazin-2-amine] was tested, and the “Toxicity attributable to compound” value ([1]; ATL cell-bearing NOG mice, 12.5 mg/kg p.o. once daily, during the study period) was “not observed”, the “survival of ATL cell-bearing mice” value ([1]; thirty-eight days after ATL cell inoculation, 12.5 mg/kg p.o. once daily 21 days, n=7) was “all alive” and the IC50 [2] was 2.96 µM. The IC50 [3] was 0.74 µM, the IC50 [4] was 0.54 µM and the IC50 [5] was 0.52 µM. For the same compound, the IC50 [6] was 0.44 µM, the IC50 [7] was 0.34 µM and the IC50 [8] was 1.2 µM. The IC50 [9] was 2.2 µM, the IC50 [10] was 0.17 µM and the IC50 [11] was 0.36 µM. The IC50 [12] was 0.6 µM, the IC50 [13] was 0.71 µM and the IC50 [14] was 0.48 µM. For the same compound, the IC50 [15] was 1.41 µM, the IC50 [16] was 2.13 µM and the IC50 [17] was 0.61 µM. The IC50 [18] was 0.57 µM, the IC50 [19] was 0.66 µM and the IC50 [20] was 0.54 µM. The IC50 [21] was 0.79 µM, the IC50 [22] was 1.1 µM and the “percentage of ATL cells (human CD45-positive, CD4-positive, CD8-negative) in bone marrow cell suspension” value [23, 25] was 0.01% (4×) and 0.02% (2×) and 0.72% and < 0.01%. For the same compound, the “percentage of ATL cells (human CD45-positive, CD4-positive, CD8-negative) in liver cell suspension” value [23, 25] was 0.9% and 1.6% and 1.0% and 0.4% and 2.2% and 1.1% and 0.6% and 0.5%, the “concentration of human sIL2R in serum, mean” value ([23]; treated NOG mice 1-8, ELISA) was 84500 pg/mL and the “concentration of human sIL2R in serum, median” value ([23]; treated NOG mice 1-8, ELISA) was 84900 pg/mL. The “concentration of human sIL2R in serum, range” value ([23]; treated NOG mice 1-8, ELISA) was 69.0-97.4 ×10^3 pg/mL, the “OCI-LY-7 tumour growth compared to vehicle control group” value ([24]; Mann-Whitney-Wilcoxon U-test) was “significantly reduced” and the “Activity Rating” value ([24]; OCI-LY-7 in NOG mice, days 0-27) was “++++ (Complete remission T/C < 5%)”. The “Min. T/C [%] (Day)” value ([24]; OCI-LY-7 in NOG mice, days 0-27, minimum on day 19, 25 mg/kg/day) was 2.6% and 2.6 (19) %, the Survival rate [24, 26] was 80% and the “median BWL (body weight loss)” value [24, 26] was 17.9%. The tolerability profile ([24]; lymphoma xenograft bearing mice) was “acceptable tolerability profile”.
